Test results as given in PMC3479967 (Evidence-based Complementary and Alternative Medicine : eCAM, 2012).

What was measured:
[1] = set-up: method as in PMID 17632044; details: after a single oral administration of Epimedium pubescens decoction; cited from earlier work
[2] = target: T1, UGT1A8 (Homo sapiens, UniProt Q9HAW9); experiment: Inhibition of recombinant UGT1A8 activity (4-MU glucuronidation)
T1 sequence (Q9HAW9 26-530): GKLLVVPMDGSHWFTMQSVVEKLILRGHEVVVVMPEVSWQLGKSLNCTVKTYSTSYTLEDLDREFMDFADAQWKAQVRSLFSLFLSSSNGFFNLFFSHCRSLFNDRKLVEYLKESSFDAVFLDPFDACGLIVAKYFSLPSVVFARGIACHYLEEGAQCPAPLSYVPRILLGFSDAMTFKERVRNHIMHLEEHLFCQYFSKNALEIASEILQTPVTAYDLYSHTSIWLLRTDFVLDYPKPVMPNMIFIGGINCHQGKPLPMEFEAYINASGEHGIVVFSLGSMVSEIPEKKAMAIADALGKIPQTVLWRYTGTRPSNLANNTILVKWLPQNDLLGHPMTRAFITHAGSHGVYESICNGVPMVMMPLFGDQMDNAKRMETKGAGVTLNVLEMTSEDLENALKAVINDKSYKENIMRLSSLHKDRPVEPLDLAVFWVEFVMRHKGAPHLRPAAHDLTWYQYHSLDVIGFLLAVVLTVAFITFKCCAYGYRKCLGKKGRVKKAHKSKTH
Procedure: (§1) A panel of recombinant human UGT supersomes (UGT1A1, UGT1A3, UGT1A4, UGT1A6, UGT1A7, UGT1A8, UGT1A9, UGT1A10, UGT2B4, UGT2B7, UGT2B15, and UGT2B17) expressed in baculovirus-infected insect cells were purchased from BD Gentest Corp. (Woburn, MA, USA).
(§2) 4-MU, a nonselective substrate of UGTs, was used as probe substrate for all UGTs except UGT1A4. Incubations with each individual enzyme were conducted using conditions previously described. There was a 5 min preincubation step at 37°C before the reaction was started by addition of UDPGA. The incubation mixtures were then centrifuged at 20,500 ×g for 15 min to obtain the supernatant. Aliquots (20 μL) were then analyzed by HPLC. The HPLC system (SHIMADZU, Kyoto, Japan) consisted of an SCL-10A system controller, two LC-10AT pumps, a SIL-10A auto injector, and a SPD-10AVP UV detector. Chromatographic separation was achieved using a Kromasil ODS column (4.6 × 150 mm I.D., 5 μm particle size) at a flow rate of 1 mL/min and UV detection at 316 nm. The mobile phase consisted of 10 mM KH2PO4, pH 2.7 (A) and acetonitrile (B). The following gradient was applied at a flow rate of 1 mL/min: 0–4 min 80% A and 20% B, 4.1–8 min 50% A and 50% B, 8.1–12 min, 30% A and 70% B. All experiments were performed in two independent experiments in duplicate.
(§3) A typical incubation mixture contained recombinant human UGTs, 5 mM MgCl2, 5 mM UDPGA, 50 μg/mg protein alamethicin, 50 mM Tris-HCl buffer (pH 7.4), and various probe substrates of UGTs in the absence or presence of different concentrations of inhibitors. […] The final concentration of DMSO in the incubation system was 1% (v/v). […]
(§4) Inhibition data from experiments were graphically represented by Dixon plots. K i values were calculated by nonlinear regression using the equations for competitive inhibition (1), noncompetitive inhibition (2), or mixed inhibition (3), [22] […] The type of inhibition was determined from the enzyme inhibition models. Goodness of fit to kinetic and inhibition models was assessed from the F statistic, r ^2 values, parameter standard error estimates, and 95% confidence intervals. […]

[3] = target: T2, UGT1A6 (Homo sapiens, UniProt P19224); experiment: Inhibition of recombinant UGT1A6 activity (4-MU glucuronidation)
T2 sequence (P19224 27-532): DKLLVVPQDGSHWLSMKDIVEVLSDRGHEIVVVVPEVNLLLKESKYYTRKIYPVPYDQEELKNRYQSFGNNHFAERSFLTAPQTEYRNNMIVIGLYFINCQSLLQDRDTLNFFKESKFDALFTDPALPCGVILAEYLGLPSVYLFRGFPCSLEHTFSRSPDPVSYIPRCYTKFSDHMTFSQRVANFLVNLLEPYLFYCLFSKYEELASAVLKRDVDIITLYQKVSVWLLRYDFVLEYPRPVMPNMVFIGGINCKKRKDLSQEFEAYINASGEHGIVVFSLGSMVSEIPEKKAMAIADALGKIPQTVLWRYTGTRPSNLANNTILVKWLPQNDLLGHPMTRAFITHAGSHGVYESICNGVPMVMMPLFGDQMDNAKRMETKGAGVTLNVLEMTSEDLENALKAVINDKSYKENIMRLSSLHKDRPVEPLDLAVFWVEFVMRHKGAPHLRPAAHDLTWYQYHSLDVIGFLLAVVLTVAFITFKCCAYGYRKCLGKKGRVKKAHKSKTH
Procedure: as §1, §2, §3, §4

[4] = reported value, as fraction; cited from earlier work
[5] = cited from earlier work
[6] = test system: CYPs; set-up: method as in PMID 16476124; details: previous studies; cited from earlier work

IC50 [2]	IC50 [3]	Compound	Reported icaritin concentration in blood [1]	Oral bioavailability [4]	Fraction of icariin transformed into its intestinal metabolites in the intestinal lumen [5]	Inhibitory effect on CYPs activities [6]
> 100 µM	> 100 µM	COc1ccc(-c2oc3c(CC=C(C)C)c(O)cc(O)c3c(=O)c2O)cc1 [Icaritin]	1.5 nM			
> 100 µM	> 100 µM	COc1ccc(-c2oc3c(CC=C(C)C)c(O[C@@H]4O[C@H](CO)[C@@H](O)[C@H](O)[C@H]4O)cc(O)c3c(=O)c2O)cc1 [Icariside I]				

Compound	IC50 [2]	IC50 [3]	Reported icaritin concentration in blood [1]	Oral bioavailability [4]	Fraction of icariin transformed into its intestinal metabolites in the intestinal lumen [5]	Inhibitory effect on CYPs activities [6]
COc1ccc(-c2oc3c(CC=C(C)C)c(O[C@@H]4O[C@H](CO)[C@@H](O)[C@H](O)[C@H]4O)cc(O)c3c(=O)c2O[C@@H]2O[C@@H](C)[C@H](O)[C@@H](O)[C@H]2O)cc1 [Icariin]	> 100 µM	> 100 µM		0.12	about 70%	no inhibitory effects
